Test [1] concerns ovarian carcinoma cell line, A2780. Put plainly: MTT cell viability assay, single phytocannabinoids (Example 1). It counts as cell-based. The conditions noted are these: A2780 cells; for IC50: MTT. As to the method:
(§1) An ovarian carcinoma cell line, A2780 was grown and maintained in RPMI 1640 medium supplemented with 10% fetal bovine serum at 37° C., 5% CO2. The cells were plated in 96-well culture plates at a density of 1×10^4 cells/well and allowed to adhere at 37° C. for 24 hours.
The cells were starved with 1% serum overnight, then treated with various concentrations of different phytocannabinoid ([…]) for various incubation periods.
The different phytocannabinoids tested were: cannabidiol (CBD); cannabidiol acid (CBDA); cannabigerol (CBG); cannabigerolic acid (CBGA); cannabigerol propyl variant (CBGV); and tetrahydrocannabivarin (THCV).
A cell viability assay, MTT, was performed following four different incubation times of 24 hours, 48 hours, 72 hours and 96 hours.
(§2) The supernatant was removed and MTT (3-(4,5-dimethylthiazol-2-yl)-2,5-diphenyltetrazolium bromide) was added for 4 hours. The ability of cells to form formazan crystals by active mitochondrial respiration was determined by using a Microplate reader after dissolving the crystals in DMSO.
(§3) Cytotoxicity was expressed as a relative percentage of the absorbance measured at 540 nm in the control and drug-treated cells. IC50 values were also calculated.
(§4) In all experiments data were presented as the mean and analysed using ANOVA followed by Dunnet's t-test; n=4.

Test [2] shares this test system. The test is described as follows: MTT cell viability assay, combinations of phytocannabinoids (Example 2). It counts as cell-based. To be noted: Homo sapiens, A2780 cells. Here is the method: as §1
The different phytocannabinoid combinations that were tested were: A: cannabidiol (CBD) in combination with tetrahydrocannabivarin (THCV) and B: CBD in combination with cannabigerol (CBG).
The cells were starved with 1% serum overnight. In Experiment A various doses of CBD (1 nM-10 μM) were tested in the absence or presence of 1 hours pre-treatment of THCV (1 μM) for various incubation periods. In Experiment B various doses of CBD (1 nM-10 μM) were tested in the absence or presence of CBG (1 nM-100 μM) for various incubation periods.
A cell viability assay, MTT, was performed following four different incubation times of 24 hours, 48 hours (CBG combination only), 72 hours and 96 hours.
as §2, §3, §4

Setting [3] is: Homo sapiens, 24 hours incubation.
Where [4] appears, read: Homo sapiens, 48 hours incubation.
Where [5] appears, read: Homo sapiens, 72 hours incubation.
[6] abbreviates: Homo sapiens, 96 hours incubation.
Where [7] appears, read: 24 hours after the cannabinoids were added.
Setting [8] is: A2780, 24 h, Experiment B (CBD in absence or presence of CBG), 24 hours.
Where [9] appears, read: A2780, 48 h, Experiment B (CBD in absence or presence of CBG), 48 hours.
Setting [10] is: A2780, 72 h, Experiment B (CBD in absence or presence of CBG), 72 hours.
Setting [11] is: A2780, 96 h, Experiment B (CBD in absence or presence of CBG), 96 hours.
[12] abbreviates: A2780, 24 h, Experiment A (CBD with or without 1 hour pre-treatment with THCV 1 μM), 24 hours.
[13] abbreviates: A2780, 72 h, Experiment A (CBD with or without 1 hour pre-treatment with THCV 1 μM), 72 hours.
Where [14] appears, read: A2780, 96 h, Experiment A (CBD with or without 1 hour pre-treatment with THCV 1 μM), 96 hours.

As for `C=C(C)[C@@H]1CCC(C)=C[C@H]1c1c(O)cc(CCCCC)c(C(=O)O)c1O` [CBDA, Cannabidiolic acid], the IC50 in test [1] (setting [3]) was 16 µM; in test [1] (setting [4]), 9.5 µM; in test [1] (setting [5]), 10 µM; in test [1] (setting [6]), 11.8 µM.

Cannabigerolic acid [CBGA]: the values for the IC50 in test [1] (24 hours incubation), in test [1] (48 hours incubation) and in test [1] (72 hours incubation) were 12.5 µM, 9.9 µM and 9.25 µM, respectively.

Regarding `CCCc1cc(O)c(C/C=C(\C)CCC=C(C)C)c(O)c1` [CBGV, Cannabigerol propyl variant], the IC50 in test [1] (setting [3]) stood at 6 µM; in test [1] (setting [4]), 3.5 µM; in test [1] (setting [5]), 4 µM.

For `CCCCCc1cc(O)c(C/C=C(\C)CCC=C(C)C)c(O)c1` [CBG, Cannabigerol], the potency in words result in test [1] (setting [7]) was “very potent”; in test [1] (after 48 hours) it was “marginally more potent than CBD”. Also, the IC50 was determined as 2 µM in test [1] (setting [3]); 0.83 µM in test [1] (setting [4]); 0.85 µM in test [1] (setting [5]); 3.38 µM in test [1] (setting [6]); 13.9 µM in test [2] (setting [8]); 9.48 µM in test [2] (setting [9]). The IC50 in test [2] (setting [10]) amounted to 9.96 µM; in test [2] (setting [11]), 8.96 µM.

Turning to `C=C(C)[C@@H]1CCC(C)=C[C@H]1c1c(O)cc(CCCCC)cc1O` [CBD, Cannabidiol], the potency in words entry in test [1] (setting [7]) is “very potent”. Further, the concentration for half-maximal inhibition (IC50) in test [1] (setting [3]) stood at 0.98 µM; in test [1] (setting [4]), 0.95 µM; in test [1] (setting [5]), 1.9 µM; in test [1] (setting [6]), 3.63 µM; in test [2] (setting [12]), 12.5 µM; in test [2] (setting [8]) it was 11.8 µM. Moreover, the IC50 in test [2] (setting [9]) stood at 6.85 µM; in test [2] (setting [13]) it was 5.87 µM; in test [2] (setting [10]), 7.92 µM; in test [2] (setting [14]) it was 5.62 µM; in test [2] (setting [11]), 4.43 µM.

`CCCc1cc(O)c2c(c1)OC(C)(C)[C@@H]1CCC(C)=C[C@@H]21` [THCV, Tetrahydrocannabivarin]: the concentration for half-maximal inhibition (IC50) in test [1] (setting [3]) stood at 8 µM; in test [1] (setting [4]), 5.75 µM; in test [1] (setting [5]), 8.75 µM; in test [1] (setting [6]), 9 µM; in test [2] (setting [12]), 16.2 µM; in test [2] (setting [13]), 14.8 µM. In addition, in test [2] (setting [14]), the IC50 worked out at 10.5 µM.

The record behind these values is US10098867B2, “Use of phytocannabinoids in the treatment of ovarian carcinoma” (GW Research Limited, priority 2013, dated 2018).
